Test results as given in the supplement of paper PMC11061612.

Key:
Test in all cases: Bliss excess, mean over the matrix (fraction); higher = more synergy
[1] = tested on: BT-549 (Breast Carcinoma)
How it was run: (§1)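 Cell lines grown in DMEM/F12 or RPMI with 10% FBS were plated in 1536-well plates and held 24 hours at 37°C, 5% CO2 before 72 hours of exposure to two-drug dose matrices, with DMSO typically at 0.2%. CellTiter-Glo 2.0 luminescence gave viability, which was converted to inhibition. Vehicle wells were set to 0 and blank wells to 1. Combination Emax is the second-highest inhibition in the matrix, and Bliss excess is the observed combination effect minus the expected EA + EB − EA·EB, where EA and EB are the single-agent effects.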

[2] = tested on: C-4-I (Cervical Carcinoma)
How it was run: as §1

[3] = tested on: EFM-19 (Breast Carcinoma)
How it was run: as §1

[4] = tested on: HGC-27 (Gastric Carcinoma)
How it was run: as §1

[5] = tested on: HOP-62 (Lung Adenocarcinoma)
How it was run: as §1

[6] = tested on: Hs-766T (Pancreatic Carcinoma)
How it was run: as §1

[7] = tested on: KMOE-2 (Acute Myeloid Leukemia)
How it was run: as §1

[8] = tested on: LU-65 (Non-Small Cell Lung Carcinoma)
How it was run: as §1

[9] = tested on: MIA-PaCa-2 (Pancreatic Carcinoma)
How it was run: as §1

[10] = tested on: MLMA (Other Blood Carcinomas)
How it was run: as §1

[11] = tested on: NCI-H1915 (Non-Small Cell Lung Carcinoma)
How it was run: as §1

[12] = tested on: NCI-H358 (Lung Adenocarcinoma)
How it was run: as §1

[13] = tested on: NEC8 (Other Solid Carcinomas)
How it was run: as §1

[14] = tested on: NUGC-3 (Gastric Carcinoma)
How it was run: as §1

[15] = tested on: OVCAR-4 (Ovarian Carcinoma)
How it was run: as §1

[16] = tested on: PANC-04-03 (Pancreatic Carcinoma)
How it was run: as §1

PWR-1E (Non-Cancerous) = tested on: PWR-1E (Non-Cancerous)
How it was run: as §1

[17] = tested on: SU8686 (Pancreatic Carcinoma)
How it was run: as §1

[18] = tested on: SW13 (Other Solid Carcinomas)
How it was run: as §1

[19] = tested on: VA-ES-BJ (Other Solid Carcinomas)
How it was run: as §1

| SMILES | Bliss excess [1] | Bliss excess [2] | Bliss excess [3] | Bliss excess [4] | Bliss excess [5] | Bliss excess [6] | Bliss excess [7] | Bliss excess [8] | Bliss excess [9] | Bliss excess [10] | Bliss excess [11] | Bliss excess [12] | Bliss excess [13] | Bliss excess [14] | Bliss excess [15] | Bliss excess [16] | Bliss excess (PWR-1E (Non-Cancerous)) | Bliss excess [17] | Bliss excess [18] | Bliss excess [19] |
| --- | --- | --- | --- | --- | --- | --- | --- | --- | --- | --- | --- | --- | --- | --- | --- | --- | --- | --- | --- | --- |
| COc1nnc2ccc(N3CCC(c4ccc(OCCN5CCN(C)C(=O)[C@H]5C)cc4)CC3)nn12 [AZD5153] + CC1(C)CCC(CN2CCN(c3ccc(C(=O)NS(=O)(=O)c4ccc(NCC5CCOCC5)c([N+](=O)[O-])c4)c(Oc4cnc5[nH]ccc5c4)c3)CC2)=C(c2ccc(Cl)cc2)C1 [Venetoclax] (first compound max 1 µM, 7x7, partner max 1 µM) | -0.0031 | -0.05 | -0.0442 | -0.0808 | -0.0716 | -0.0487 | -0.0718 | -0.072 | -0.0739 | -0.0084 | -0.0659 | -0.049 | -0.0661 | -0.0746 | -0.0104 | -0.0341 | -0.0826 | -0.0501 | -0.0458 | -0.0486 |
| CC(=O)c1c(C)c2cnc(Nc3ccc(N4CCNCC4)cn3)nc2n(C2CCCC2)c1=O [Palbociclib] + CC1(C)CCC(CN2CCN(c3ccc(C(=O)NS(=O)(=O)c4ccc(NCC5CCOCC5)c([N+](=O)[O-])c4)c(Oc4cnc5[nH]ccc5c4)c3)CC2)=C(c2ccc(Cl)cc2)C1 [Venetoclax] (first compound max 10 µM, 7x7, partner max 1 µM) | -0.034 | -0.0464 | -0.0475 | 0.046 | -0.0132 | -0.0544 | -0.015 | -0.0781 | -0.0392 | -0.15 | 0.0174 | -0.0862 | -0.0265 | -0.0178 | -0.0523 | -0.0528 | -0.0229 | -0.0391 | -0.0444 | 0.0104 |
| CC1(C)CCC(CN2CCN(c3ccc(C(=O)NS(=O)(=O)c4ccc(NCC5CCOCC5)c([N+](=O)[O-])c4)c(Oc4cnc5[nH]ccc5c4)c3)CC2)=C(c2ccc(Cl)cc2)C1 [Venetoclax] + C1CN(CCC1(C(=O)N[C@@H](CCO)C2=CC=C(C=C2)Cl)N)C3=NC=NC4=C3C=CN4 [Capivasertib] (first compound max 1 µM, 7x7, partner max 3 µM) | -0.0385 | -0.0099 | -0.0925 | -0.0002 | -0.0565 | -0.0635 | 0.0121 | -0.0377 | -0.0384 | -0.0425 | -0.0362 | -0.0591 | -0.0125 | -0.0102 | -0.0393 | -0.0732 | -0.0161 | -0.0379 | -0.0238 | -0.0357 |
| NC1(C(=O)N[C@@H](CCO)c2ccc(Cl)cc2)CCN(c2ncnc3[nH]ccc23)CC1 [Capivasertib] + COc1nnc2ccc(N3CCC(c4ccc(OCCN5CCN(C)C(=O)[C@H]5C)cc4)CC3)nn12 [AZD5153] (first compound max 10 µM, 7x7, partner max 1 µM) | 0.0602 | 0.046 | 0.0634 | 0.0097 | -0.0633 | 0.0126 | -0.0211 | -0.152 | -0.0594 | -0.0177 | 0.0289 | -0.0514 | 0.0363 | 0.0564 | -0.0387 | -0.0242 | 0.0579 | -0.0359 | -0.0086 | 0.0414 |
| C=CCn1c(=O)c2cnc(Nc3ccc(N4CCN(C)CC4)cc3)nc2n1-c1cccc(C(C)(C)O)n1 [AZD1775] + C1CN(CCC1(C(=O)N[C@@H](CCO)C2=CC=C(C=C2)Cl)N)C3=NC=NC4=C3C=CN4 [Capivasertib] (first compound max 3 µM, partner max 3 µM) | -0.0628 | 0.0113 | -0.0443 | 0.0785 | -0.0872 | -0.0513 | 0.0273 | -0.0688 | -0.0471 | -0.0415 | 0.0032 | -0.0375 | 0.013 | 0.0143 | -0.0627 | 0.083 | -0.0165 | -0.0619 | -0.016 | -0.0037 |
| NC1(C(=O)N[C@@H](CCO)c2ccc(Cl)cc2)CCN(c2ncnc3[nH]ccc23)CC1 [Capivasertib] + CC(=O)c1c(C)c2cnc(Nc3ccc(N4CCNCC4)cn3)nc2n(C2CCCC2)c1=O [Palbociclib] (first compound max 10 µM, 7x7, partner max 10 µM) | -0.0064 | -0.0334 | -0.0107 | -0.0085 | -0.04 | 0.0056 | -0.0566 | -0.151 | 0.0767 | -0.0769 | -0.0247 | -0.0373 | -0.0104 | 0.0372 | -0.0517 | -0.0351 | -0.017 | -0.0465 | -0.0236 | 0.0144 |
| CS(=O)(=O)CCNCc1ccc(-c2ccc3ncnc(Nc4ccc(OCc5cccc(F)c5)c(Cl)c4)c3c2)o1 [Lapatinib] + C[C@@H](Oc1cc(-c2cnn(C3CCNCC3)c2)cnc1N)c1c(Cl)ccc(F)c1Cl [Crizotinib] (first compound max 10 µM, 7x7, partner max 10 µM) | -0.0916 | 0.0399 | -0.0109 | -0.0903 | -0.0466 | -0.0535 | 0.0174 | -0.0236 | -0.0517 | -0.0721 | -0.0169 | -0.0522 | -0.0234 | -0.142 | -0.0231 | -0.0586 | -0.0184 | -0.0299 | -0.0291 | 0.005 |
